# Measured values reported in publication PMC10108266, “Pharmacokinetic characteristics of golidocitinib, a highly selective JAK1 inhibitor, in healthy adult participants” (Frontiers in Immunology, 2023).
# Where two headings read alike, the source gives them in different places.
# Tests used:
# Format in all cases: in vivo, human
# [1] = JACKPOT3 single-ascending-dose plasma PK, healthy Chinese participants; conditions: for AUC(0-inf) / Cmax / Vd/F / half-life / Tmax: human, plasma; for AUC(0-inf) / Cmax: geometric mean (CV%)
# Description: This was a SAD study in healthy adult Asian participants, with a study design similar to the SAD cohorts of JACKPOT2 study. […] A total of 32 healthy participants were randomized to receive a single dose of golidocitinib or matched placebo (6:2).
# (§1) After single oral administration, serial blood samples were obtained on Day 1 at pre-dose, and at 0.5, 1, 1.5, 2, 3, 4, 6, 8, 12, 24 (Day 2), 48 (Day 3), 72 (Day 4), 120 (Day 6), 168 (Day 8) and 216 (Day 10) hours post-dose for plasma PK analysis. Urine samples were collected during the collection intervals of 0-4, 4-10, 10-24, 24-48, 48-72, 72-96, 96-120, 120-144, and 144-168 hours following a single oral dose of 100 mg for urine PK analysis. Validated LC/MS methods were used for the determination of golidocitinib in human plasma and urine by Frontage Laboratories Inc. (Shanghai). This method was cross validated by Frontage Laboratories Inc. (New Jersey, USA) and met the acceptance criteria.
# [2] = JACKPOT2 MAD urinary PK (Day 14); conditions: for CLtotal: CL/F * F (0.7 from PBPK model); for Fe0-t: CLr/CLtotal; for Ae0-t: urine 0-24 hour on Day 14; for CL renal: human, oral
# Description: In the SAD cohorts, serial blood samples were obtained on Day 1 at pre-dose, and at 0.5, 1, 1.5, 2, 3, 4, 6, 10, 14, 24 (Day 2), 48 (Day 3), 72 (Day 4), 120 (Day 6), 168 (Day 8) and 216 (Day 10) hours post-dose for plasma PK analysis. A similar sampling schedule was undertaken for the MAD cohorts on Day 1 and Day 14, with additional trough samples obtained on Days 5, Day 8, and Day 11. In the MAD cohorts, urine samples were collected on Day 14 during the collection intervals of 0-4, 4-10, and 10-24 hours following the last dose for urine PK analysis. Plasma and urine samples were analyzed by Frontage Laboratories Inc. (New Jersey, USA) using a validated LC/MS/MS bioanalytical method to determine golidocitinib concentrations. Cross validation in plasma was successful between Frontage Laboratories Inc. (New Jersey, USA) and Frontage Laboratories Inc. (Shanghai) using clinical samples and spiked quality control samples.
# (§2) The mean (SD) amount of golidocitinib excreted in the urine over the collection period and renal clearance are presented in Table 2B . The average amount of golidocitinib excreted in the urine increased in an approximately dose proportional manner from 25 mg to 100 mg. […] The renal excretion fraction (Fe0-t) is helpful to compare the renal clearance (CLr) with total clearance (CLtotal) and determine the contribution of renal clearance in the drug elimination. It was calculated by the equation Fe0-t = CLr/CLtotal. The CL/F values were obtained from the two Phase I studies after the oral administration. Since the pharmacokinetics of golidocitinib after intravenous injection was not studied, the bioavailability value (F) was calculated by physiologically based pharmacokinetic (PBPK) model that incorporated compound specific information and independent prior knowledge on the physiology and biology at the organism.
# [3] = JACKPOT3 SAD urinary PK (100 mg); conditions: single dose 100 mg
# Method: as §1, §2
compound,measurement,setting,value
"COc1nn(C)cc1Nc1nccc(-c2c[nH]c3c(NC(=O)[C@@H](C)N4CCN(C)CC4)cccc23)n1 [golidocitinib, (2R)-N-[3-[2-[(3-Methoxy-1-methyl-pyrazol-4-yl)amino]pyrimidin-4-yl]-1H-indol-7-yl]-2-(4-methylpiperazin-1-yl)propenamide]",AUC(0-inf),"[1]; oral, single dose 25 mg",1.23 µg·h/mL
same,Cmax,"[1]; oral, single dose 25 mg",0.0408 µg/mL
same,Vd/F,"[1]; oral, single dose 25 mg, mean (SD), read-out: Vz/F",1040 L
same,half-life,"[1]; oral, single dose 25 mg, median (min, max), read-out: t1/2 (converted)",38 h
same,Tmax,"[1]; oral, single dose 25 mg, median (min, max), read-out: tmax",3 h
same,AUC(0-inf),"[1]; oral, single dose 50 mg",2.37 µg·h/mL
same,Cmax,"[1]; oral, single dose 50 mg",0.075 µg/mL
same,Vd/F,"[1]; oral, single dose 50 mg, mean (SD), read-out: Vz/F",1160 L
same,half-life,"[1]; oral, single dose 50 mg, median (min, max), read-out: t1/2 (converted)",39.1 h
same,Tmax,"[1]; oral, single dose 50 mg, median (min, max), read-out: tmax",2 h
same,AUC(0-inf),"[1]; oral, single dose 100 mg",4.74 µg·h/mL
same,Cmax,"[1]; oral, single dose 100 mg",0.184 µg/mL
same,Vd/F,"[1]; oral, single dose 100 mg, mean (SD), read-out: Vz/F",826 L
same,half-life,"[1]; oral, single dose 100 mg, median (min, max), read-out: t1/2 (converted)",28.3 h
same,Tmax,"[1]; oral, single dose 100 mg, median (min, max), read-out: tmax",2 h
same,AUC(0-inf),"[1]; oral, single dose 150 mg",8.34 µg·h/mL
same,Cmax,"[1]; oral, single dose 150 mg",0.28 µg/mL
same,Vd/F,"[1]; oral, single dose 150 mg, mean (SD), read-out: Vz/F",1210 L
same,half-life,"[1]; oral, single dose 150 mg, median (min, max), read-out: t1/2 (converted)",46.7 h
same,Tmax,"[1]; oral, single dose 150 mg, median (min, max), read-out: tmax",1.75 h
same,Vd/F,"[1]; single oral administration, Chinese participants, read-out: mean Vz/F",826 to 1210 L
same,half-life,"[1]; single oral administration, across the dose range, Chinese participants, read-out: median terminal half-life (t1/2)",28.3 to 46.7 h
same,Tmax,"[1]; single oral administration, across the dose range, Chinese participants, read-out: median tmax",1.75 to 3 h
same,CL/F,"[1]; single dose 50 mg, mean (SD)",21.2 (13.1) L/hr
same,CL/F,"[1]; single dose 100 mg, mean (SD)",21.4 (16.5) L/hr
same,CL/F,"[1]; single dose 150 mg, mean (SD)",18.1 (14.2) L/hr
same,CLtotal,[2]; 25 mg once daily 14 days,15.2 L/h
same,Fe0-t,[2]; 25 mg once daily 14 days,20.9%
same,Ae0-t,"[2]; 25 mg once daily 14 days, mean (SD)",4.94 (1.23) mg
same,CLtotal,[2]; 50 mg once daily 14 days,15.5 L/h
same,Fe0-t,[2]; 50 mg once daily 14 days,23.9%
same,Ae0-t,"[2]; 50 mg once daily 14 days, mean (SD)",11.7 (1.69) mg
same,CLtotal,[2]; 100 mg once daily 14 days,13.4 L/h
same,Fe0-t,[2]; 100 mg once daily 14 days,20.2%
same,Ae0-t,"[2]; 100 mg once daily 14 days, mean (SD)",19.2 (4.11) mg
same,CL renal,"[2]; urine and plasma, 25 mg once daily 14 days, Ae0-t/AUC0-t, mean (SD), read-out: CLr (converted)",53 mL/min
same,CL renal,"[2]; urine and plasma, 50 mg once daily 14 days, Ae0-t/AUC0-t, mean (SD), read-out: CLr (converted)",61.5 mL/min
same,CL renal,"[2]; urine and plasma, 100 mg once daily 14 days, Ae0-t/AUC0-t, mean (SD), read-out: CLr (converted)",45.2 mL/min
same,CL renal,"[2]; urine, US participants, 25 mg to 100 mg, read-out: mean renal clearance",45.2 to 61.5 mL/min
same,CL renal,"[3]; human, urine and plasma, oral, Ae0-t/AUC0-t, mean (SD)",67.8 mL/min
same,CLtotal,[3]; CL/F * F (0.7 from PBPK model),15.0 L/h
same,Fe0-t,[3]; CLr/CLtotal,27.2%
same,Ae0-t,"[3]; urine 0-168 hour, mean (SD)",19.5 (6.22) mg
